# Measured values: US11840686B2, “Modulation of prekallikrein (PKK) expression” (Ionis Pharmaceuticals, Inc., priority 2013, dated 2023)
# Strand notation (5' to 3'): a small letter for the sugar, then the base; units joined by * are phosphorothioate-linked, units joined directly phosphodiester-linked; [ ] holds rarer units or linkages, { } end groups; capitals alone tell only the bases. e = 2'-O-(2-methoxyethyl) (MOE); k = constrained ethyl (cEt); [5mC] = 5-methylcytosine; d = 2'-deoxy (DNA)
# Test system: human PKK mRNA
# Test: Antisense inhibition of human PKK mRNA in HepaRG cells, 1,000 nM, MOE/deoxy/cEt oligonucleotides (Example 3)
# Assay type: cell-based
# Conditions: HepaRG cells, 1,000 nM antisense oligonucleotide, Table 29
# How it was run: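 HepaRG cells at 20,000 per well electroporated with 1,000 nM 16-mer MOE/cEt/deoxy gapmers (phosphorothioate, 5-methylcytosine). After about 24 h, PKK mRNA measured by qRT-PCR with primer probe set RTS3454, normalized to RIBOGREEN total RNA. Reported as percent inhibition versus untreated cells.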
row,Substance,% inhibition [%]
1,548556 (antisense eA*eT*kG*d[5mC]*dA*dT*dG*d[5mC]*d[5mC]*dT*dA*d[5mC]*d[5mC]*k[5mC]*kA*eA) [compound 548556],43
2,548592 (e[5mC]*eT*k[5mC]*dA*d[5mC]*d[5mC]*dA*dG*dA*dG*dT*dT*dG*kT*k[5mC]*e[5mC]; antisense) [compound 548592],7
3,548610 (antisense eG*eG*kA*dT*d[5mC]*dG*dG*dT*dG*dG*dT*dG*dG*kG*kA*eT) [compound 548610],2
4,548611 (antisense eG*e[5mC]*kG*dG*dG*dA*dT*d[5mC]*dG*dG*dT*dG*dG*kT*kG*eG) [compound 548611],7

# Same assay, conditions: HepaRG cells, electroporation with 1,000 nM antisense oligonucleotide, approx. 24 hours, PKK mRNA by RT-PCR (RTS3454), relative to untreated control cells; Table 25 experiment
row,Substance,% inhibition [%]
1,548227 (eG*eT*kG*dG*d[5mC]*d[5mC]*d[5mC]*dT*d[5mC]*dT*dT*dA*dA*kG*kT*e[5mC]; antisense) [compound 548227],0
2,548177 (eA*eG*kA*dT*d[5mC]*dT*d[5mC]*dA*dG*dT*dT*dG*d[5mC]*kG*kA*e[5mC]; antisense) [compound 548177],45
3,548207 (e[5mC]*eT*kG*dG*dT*d[5mC]*dA*dA*dT*d[5mC]*dT*dG*dA*k[5mC]*kT*eA; antisense) [compound 548207],60
4,548185 (eA*eA*k[5mC]*dA*d[5mC]*dA*d[5mC]*dA*dG*dT*d[5mC]*dA*dT*kG*kG*eA; antisense) [compound 548185],23
5,548198 (eA*e[5mC]*kT*dG*d[5mC]*dA*dG*dG*d[5mC]*dA*dA*dT*dA*kT*kT*eT; antisense) [compound 548198],49

# Same assay, conditions: HepaRG cells, electroporation with 1,000 nM antisense oligonucleotide, approx. 24 hours, PKK mRNA by RT-PCR (RTS3454), relative to untreated control cells; Table 26 experiment
row,Substance,% inhibition [%]
1,548296 (eA*e[5mC]*k[5mC]*dA*dA*d[5mC]*dA*dA*d[5mC]*dT*d[5mC]*dA*dG*kG*k[5mC]*e[5mC]; antisense) [compound 548296],34
2,548264 (antisense e[5mC]*eA*kG*dT*d[5mC]*d[5mC]*dA*dA*dA*dA*dA*dT*d[5mC]*k[5mC]*k[5mC]*eT) [compound 548264],60
3,548271 (antisense eT*eT*k[5mC]*dA*d[5mC]*dT*dT*dA*d[5mC]*d[5mC]*dA*d[5mC]*dA*kG*kG*eA) [compound 548271],56

# Same assay, conditions: HepaRG cells, electroporation with 1,000 nM antisense oligonucleotide, approximately 24 hours, primer probe set RTS3454, relative to untreated control cells; experiment of Table 23
row,Substance,% inhibition [%]
1,547934 (e[5mC]*eT*k[5mC]*dG*dA*dT*dT*dT*dT*d[5mC]*d[5mC]*dA*dT*kA*k[5mC]*eA; antisense) [compound 547934],38
2,547952 (e[5mC]*eA*kG*dA*dT*dA*dT*dG*dG*dT*dG*dT*dT*kT*kT*e[5mC]; antisense) [compound 547952],46
3,547939 (eT*eT*kT*dG*dT*dG*dA*d[5mC]*dT*d[5mC]*dG*dA*dT*kT*kT*eT; antisense) [compound 547939],70

# Same assay, conditions: HepaRG cells, electroporation with 1,000 nM antisense oligonucleotide, approximately 24 hours, primer probe set RTS3454, relative to untreated control cells; experiment of Table 24
row,Substance,% inhibition [%]
1,548063 (eG*eT*kA*dT*dA*dA*dA*dT*dT*dG*dT*dG*d[5mC]*kT*kT*eG; antisense) [compound 548063],35

# Same assay, conditions: PKK mRNA, HepaRG cells, 1,000 nM antisense oligonucleotide; Table 31
row,Substance,% inhibition [%]
1,548624 (antisense eT*e[5mC]*kT*dA*dG*dG*dG*d[5mC]*d[5mC]*dA*d[5mC]*dA*d[5mC]*k[5mC]*kT*e[5mC]) [compound 548624],24
2,548637 (antisense eG*e[5mC]*kT*dG*dA*dT*d[5mC]*dT*dT*d[5mC]*dT*dA*dA*kT*kG*e[5mC]) [compound 548637],38
3,548677 (antisense eT*e[5mC]*kA*d[5mC]*d[5mC]*dT*dG*dT*dG*dA*dG*dT*dA*kA*k[5mC]*e[5mC]) [compound 548677],40
4,548648 (antisense e[5mC]*eA*kG*dT*dT*dG*dT*dA*dT*d[5mC]*d[5mC]*d[5mC]*dT*k[5mC]*k[5mC]*e[5mC]) [compound 548648],32
5,548625 (antisense eG*eT*kT*d[5mC]*dT*dA*d[5mC]*dA*d[5mC]*dA*d[5mC]*dA*dG*kT*kA*e[5mC]) [compound 548625],0

# Same assay, conditions: Table 19; HepaRG cells, electroporation with 1,000 nM antisense oligonucleotide, approximately 24 hours; PKK mRNA by RT-PCR (RTS3454), relative to untreated control cells
row,Substance,% inhibition [%]
1,548112 (antisense eG*eT*kG*dA*d[5mC]*dT*dG*d[5mC]*dA*dT*d[5mC]*dT*dG*kA*kG*e[5mC]) [compound 548112],23
2,548081 (e[5mC]*e[5mC]*k[5mC]*d[5mC]*dT*dT*d[5mC]*dT*dT*dT*dA*dT*dA*kG*k[5mC]*e[5mC]; antisense) [compound 548081],64
3,548091 (antisense eT*eG*k[5mC]*dA*dA*dA*d[5mC]*dT*dA*dA*dG*dG*dG*kA*k[5mC]*e[5mC]) [compound 548091],62
4,548090 (antisense e[5mC]*eA*kA*dA*d[5mC]*dT*dA*dA*dG*dG*dG*dA*d[5mC]*k[5mC]*kA*e[5mC]) [compound 548090],46
5,548140 (e[5mC]*eA*kG*dA*dT*dG*dA*dG*dG*dA*d[5mC]*d[5mC]*d[5mC]*k[5mC]*k[5mC]*e[5mC]; antisense) [compound 548140],74
6,548098 (antisense eA*eG*kA*d[5mC]*dA*d[5mC]*d[5mC]*dA*dG*dG*dT*dT*dG*k[5mC]*kT*e[5mC]) [compound 548098],0
7,548126 (eT*eG*k[5mC]*d[5mC]*dT*dA*dG*dA*d[5mC]*dT*d[5mC]*dT*dG*kG*kA*e[5mC]; antisense) [compound 548126],19
8,548133 (eA*eG*kA*dA*dT*dT*dT*dG*dA*d[5mC]*dT*dT*dG*kA*kA*e[5mC]; antisense) [compound 548133],23
9,548132 (eG*eA*kA*dT*dT*dT*dG*dA*d[5mC]*dT*dT*dG*dA*kA*k[5mC]*eT; antisense) [compound 548132],0

# Same assay, conditions: Table 21 experiment; HepaRG cells, electroporation with 1,000 nM antisense oligonucleotide, approx. 24 hours; PKK mRNA by RT-PCR (RTS3454), relative to untreated control cells
row,Substance,% inhibition [%]
1,547802 (eG*eT*kA*d[5mC]*dA*dT*dG*dG*dA*dA*dG*d[5mC]*dT*kA*k[5mC]*eA; antisense) [compound 547802],41
2,547825 (eT*e[5mC]*kG*dA*dT*dG*dT*dA*d[5mC]*dT*dT*dT*dT*kG*kG*e[5mC]; antisense) [compound 547825],59
3,547759 (antisense eT*eG*kA*dG*dT*d[5mC]*dT*d[5mC]*dT*dT*dG*dT*d[5mC]*kA*k[5mC]*eT) [compound 547759],73
4,547771 (antisense e[5mC]*eT*kT*dG*dG*dA*dG*dG*dT*dG*dA*dG*dT*k[5mC]*kT*e[5mC]) [compound 547771],60

# Same assay, conditions: Table 27; HepaRG cells, 1,000 nM antisense oligonucleotide; human PKK mRNA
row,Substance,% inhibition [%]
1,548341 (antisense eT*eA*kG*dA*dA*d[5mC]*d[5mC]*dT*dT*d[5mC]*d[5mC]*dT*d[5mC]*k[5mC]*kA*e[5mC]) [compound 548341],30
2,548355 (antisense eG*e[5mC]*kA*dT*d[5mC]*d[5mC]*dT*d[5mC]*d[5mC]*d[5mC]*dT*dA*dG*kT*kT*eG) [compound 548355],47

# Same assay, conditions: Table 28; HepaRG cells, 1,000 nM antisense oligonucleotide; human PKK mRNA
row,Substance,% inhibition [%]
1,548470 (eG*eG*kT*dG*dG*dA*dA*dT*dG*dT*d[5mC]*dA*dT*kG*kG*e[5mC]; antisense) [compound 548470],56
2,548513 (antisense e[5mC]*e[5mC]*kT*dG*d[5mC]*dT*dG*dA*dT*dT*dG*dT*dG*kT*k[5mC]*eT) [compound 548513],16
3,548490 (antisense eT*e[5mC]*kT*dG*dG*dT*dT*dA*dG*d[5mC]*d[5mC]*dT*d[5mC]*k[5mC]*kG*eA) [compound 548490],58
4,548500 (antisense eA*eT*kT*dG*d[5mC]*dT*d[5mC]*dA*dG*dG*d[5mC]*d[5mC]*d[5mC]*k[5mC]*k[5mC]*eT) [compound 548500],29
5,548508 (antisense eG*e[5mC]*kA*d[5mC]*d[5mC]*dA*d[5mC]*d[5mC]*dA*dT*dG*d[5mC]*dG*kG*kT*eT) [compound 548508],43
6,548527 (antisense eT*eG*kT*dT*dT*d[5mC]*dA*dA*dG*dT*dG*d[5mC]*d[5mC]*kA*kG*eA) [compound 548527],50

# Same assay, conditions: Table 30; human PKK mRNA, HepaRG cells, 1,000 nM antisense oligonucleotide
row,Substance,% inhibition [%]
1,548407 (e[5mC]*e[5mC]*kT*dA*dT*dA*dA*d[5mC]*dT*dG*d[5mC]*dT*dG*k[5mC]*kT*e[5mC]; antisense) [compound 548407],24
2,548430 (antisense e[5mC]*e[5mC]*kT*dA*dT*dA*dA*d[5mC]*dT*dA*dT*dA*dA*k[5mC]*kA*eG) [compound 548430],21
3,548437 (antisense eT*eA*kT*dA*dT*d[5mC]*dA*d[5mC]*dT*dG*dT*dA*d[5mC]*k[5mC]*kT*eG) [compound 548437],74
4,548399 (eA*eG*kT*d[5mC]*d[5mC]*dT*dA*d[5mC]*dA*dA*dT*dT*dA*k[5mC]*k[5mC]*eA; antisense) [compound 548399],11
5,548447 (antisense e[5mC]*eA*k[5mC]*dT*dG*dT*d[5mC]*d[5mC]*dT*dA*dT*dG*dT*k[5mC]*kA*e[5mC]) [compound 548447],59
6,548435 (antisense eA*eA*k[5mC]*dA*dA*dT*dA*dT*d[5mC]*dA*d[5mC]*dT*dG*kT*kA*e[5mC]) [compound 548435],19
7,548383 (eG*eT*k[5mC]*dT*d[5mC]*dG*dA*dT*dG*dG*d[5mC]*dA*dA*kG*k[5mC]*eT; antisense) [compound 548383],49
